The target in this assay is 5-HT2A receptor (Homo sapiens). The assay can be described thus: Displacement of [3H]-Ketanserin from human 5-HT2A receptor expressed in CHO-K1 cells incubated for 1 hr by microbeta counting method. (In general: Loss of bound radioactivity is the signal in a displacement assay; it reports binding, not function.)
The compound `CCCCC(Oc1cc(Cl)ccc1Cl)c1nc(N)nc(N2CCN(C)CC2)n1` (configuration not stated) came in with a Ki of 0.431 µM.

`CN1CCN(c2nc(N)nc(CCCOc3ccc(Cl)c(Cl)c3)n2)CC1` gave a Ki of 0.906 µM. Against the preceding compound, the Ki is about 2.1-fold higher.

For the compound `CN1CCN(c2nc(N)nc(CCCOc3cc(Cl)ccc3Cl)n2)CC1`, the affinity corresponds to a Ki of 1.46 µM.

In the case of `CC(Oc1cccc(Cl)c1Cl)c1nc(N)nc(N2CCN(C)CC2)n1` (configuration not stated), the Ki turned out to be 0.268 µM.

`CN1CCN(c2nc(N)nc(CCCOc3cccc(Cl)c3Cl)n2)CC1` had a Ki of 0.649 µM.

As for `CCCCC(Oc1cc(Cl)cc(Cl)c1)c1nc(N)nc(N2CCN(C)CC2)n1` (configuration not stated), the Ki worked out at 0.839 µM.

Turning to `CC(Oc1ccccc1Cl)c1nc(N)nc(N2CCN(C)CC2)n1` (configuration not stated), the Ki is 1.83 µM.

The Ki is the equilibrium dissociation constant of an inhibitor or competing ligand from its target.
